Laboratory results taken from patent publication US20070043034A1, “Chlorine Ion Uptake Modulators and Uses Thereof” (priority 2005, published 2007).

What was measured:
KA-induced rat seizures = test: Kainic acid (KA) induced seizures in rat pups, EEG recording in vivo; conditions: KA 2 mg/kg s.c.
Source text: Kainic Acid (KA) is a commonly used agent for creating an in vivo neonatal-like seizure model in rats for study. It is believed that this seizure model closely parallels human neonatal seizure disorders. KA, a glutamate receptor agonist, was used to induce neonatal-like seizures in postnatal (P) 7-12 day male Wistar rats. The rats were equipped with electrodes including recording and reference electrodes by standard means. There are many known methods for measuring parameters of seizures, in this example electrical signals were digitized using an analogue-to-digital converter for example a DigiData 1322A (Axon Instuments USA). The sampling interval can vary depending on the desired target interval. In this example, the sampling interval per signal was 200 […]s (5 kHz). For data analysis, several computer programs exist for capturing and analyzing these seizure parameters such as Clamp 9.2 (Axon Instruments, USA) and Origon 5.0 (Microcal Software, USA) used here. Interictal spikes were determined by typical means utilizing band-pass filtered raw data.
Many known methods exist for analyzing the power levels of different frequency components in a signal such as a signal recorded from a seizure episode. For example, power spectrum analysis can be performed after applying a Hamming window function. Unless otherwise indicated, power was calculated in 1-2 min time windows by integrating the root mean square value of the signal in frequency bands from 1 to 100 Hz (EEC band) and from 200 to 500 Hz (fast ripple band).
Pharmaceutical compositions of the present invention can be administered to seizure-induced rats to test the seizure modulatory properties of the pharmaceutical composition. In one exemplary method, the inhibition of NKCCl and its affect on seizures in rat pups was studied. Two days after implantation of recording electrodes, six P9-P10 rats received subcutaneous injection of KA (2 mg/kg) and six P9-10 control rats received subcutaneous 0.9% sodium chloride saline injections. 10-20 minutes after KA injection regular pattern of behavioral signs started, involving scratching-like movements of the hindpaws, loss of balance and turning on the side. Recurrent interictal and ictal electroencephalographic patterns occurred 20-80 minutes (61.2±10.4 min; mean±se) after KA injection in all rats from this experimental group (FIG. 4B). […] Interictal spikes usually occurred synchronously in the left and right hemispheres. Frequency of the interictal spikes was 1.43±0.06 Hz (n=23 seizures in 6 rats). Before transition to ictal patterns, interictal spikes were usually followed by fast ripple (100-500 Hz) and gamma-frequency oscillations (20-50 Hz). Tonic-clonic seizures were the most common type of seizures induced by KA in P9-10 rats. Ictal-tonic phase lasted 12.6±1.4 s (16 seizures in 5 rats). Population spikes of 18.7±1.2 Hz were characteristic of the tonic phase of KA-induced seizures (FIG. 4C). Tonic discharges were followed by clonic bursts (FIG. 4C). Large amplitude population spikes followed by 100-200 Hz ripples and 200-1200 ms gamma frequency after discharges characterized the clonic bursts. The mean duration of the clonic phase was 36.4±5 s (25 seizures in 6 rats). The ictal patterns were followed by postictal depression (FIG. 4 B-4C). During ictal EEG activity, motor activity consisted of scratching, jerky movements, turning on the side or on the back and frequent tail shaking. Five to ten recurrent seizures with an average interval 379±24.5 s were followed by periodic epileptiform discharges (PLEDs) (FIG. 4D).
In one exemplary experiment, a pharmaceutical composition of the present invention comprising bumetanide was compared to phenobarbital for effects on KA-induced rat seizures. Two days after implantation of recording electrodes, twenty-two P9-12 age-matched rats received subcutaneous injection with KA (2 mg/kg). […]

[1] = system: 8.5 mM potassium-induced epileptiform activity in hippocampal slices; test: 8.5 mM K+ induced epileptiform activity in hippocampal slices in vitro; format: cell-based, rat; conditions: for decrease of averaged power of epileptiform activity: bumetanide 10 μM
Source text: In this example, the effects of phenobarbital on recurrent interictal and ictal-like epileptiform activity in the hippocampal slices in vitro from P7-12 rats were studied. Interictal and ictal-like epileptiform activity are typical parameters studied when analyzing seizure activity in control and treated subjects. Phenobarbital exerts its pharmacological effects by allosteric activation of the GABAA receptor, increasing the duration of chloride ion channel opening, without affecting the frequency of opening or channel conductance. Simultaneous multi-site extracellular field potential records were performed in the CA3 pyramidal cell layer. To induce progressive neuronal firing, a bath application of 8.5 mM K+ was applied to the sections that developed to recurrent interictal and ictal-like epileptiform activities (FIG. 2A-2D). […] The power of extracellular field potential during 8.5 mM K+ (potassium) induced epileptiform activity in 0.1-1000 Hz frequency band, that include both gamma and fast ripple oscillations (FIG. 2A-2D).
In one exemplary method, experimental procedures were carried out on hippocampal slices of postnatal days 5 (P5) to P12 male Wistar rats. Animals were anaesthetized and decapitated and hippocampal slices were prepared by known methods. For example, hippocampal transverse slices were cut using Leica VT-100E vibratome (Leica Microsystems Nussloch GmbH, Germany) and kept in oxygenated aCSF at room temperature at least 1 hr before use. Hippocampal slices posterior to the midtemporal (caudal) part of the hippocampus (Paxinos and Watson, 1986) were used in the study.
In one example, electrophysiological recordings are gathered from individual slices and subsequently transferred to a conventional submerged-type chamber and continuously superfused with, for example, oxygenated aCSF. Whole-cell recordings were generated. Patch electrodes were used, made by known methods. For whole-cell recording in voltage-clamp mode pipettes were filled with a buffered solution.
From the example outlined above, extracellular field potentials were recorded and microelectrodes known in the art were used for simultaneous recordings of multiple unit activity (e.g. MUA; 500 Hz high-pass filter), population field activity in EEG band (1-100 Hz), and fast ripple oscillations (200-600 Hz).).
In one experimental example, bumetanide was tested for suppression of a 8.5 mM potassium-induced epileptiform activity in hippocampal slices from P7-9 and PI0-12 rats. […] Averaged power of epileptiform activity was decreased by 71±2.1% (n=9, p=1.57E-12) in P7-9 rat hippocampal slices and by 41.9±1.5% (n=6, p=2.13E-11) at P10-P12 (FIG. 3C).
In another aspect of this example, pharmaceutical compositions of the present invention may be tested for effects on the GABAA receptor using for example a GABAA-R antagonist before, during or after treatment with the pharmaceutical composition. In one example, GABAA receptor antagonists prevented the effect of bumetanide on power of epileptiform activity in the hippocampal slices from neonatal rats (FIGS. 3B and 3D). […] Here, an inhibition of synchronous network activity by bumetanide treatment in the perinatal hippocampal slices in this in vitro experiment was observed and these affects were partially reversed after treatment with bicuculline.

[2] = P9-12 rats, phenobarbital 25 mg/kg or bumetanide 0.1-0.2 mg/kg i.p.

SMILES: CCCCNc1cc(C(=O)O)cc(S(N)(=O)=O)c1Oc1ccccc1 [bumetanide, 3-(aminosulfonyl)-5-(butylamino)-4-phenoxybenzoic acid]
- periodic epileptiform discharges (KA-induced rat seizures; bumetanide 0.1-0.2 mg/kg i.p.): occurred in all six rats
- animals with recurrent ictal-clonic activity / EEG clonic seizures (KA-induced rat seizures; P9-12 rats, drug i.p. 10 min after KA (phenobarbital 25 mg/kg; bumetanide 0.1-0.2 mg/kg), 6 rats per group): 50%
- duration of ictal-clonic phase (KA-induced rat seizures; [2]): 12.5 ± 1.1 s
- duration of ictal-tonic phase (KA-induced rat seizures; [2]): 9 ± 1.9 s
- frequency of interictal spikes (KA-induced rat seizures; [2]): 1.42 ± 0.07 Hz
- mean duration of single ictal episode (seizure including interictal and ictal phases) (KA-induced rat seizures; [2]): 32 ± 3.9 s
- mean interval between seizures (KA-induced rat seizures; [2]): 360.1 ± 68.6 s
- rats with ictal-tonic pattern / tonic-clonic seizures (KA-induced rat seizures; [2]): 16.7%
- increase of power of EEG activity in the 20 minute window following seizure onset (KA-induced rat seizures; compared to pre-ictal baseline, phenobarbital 25 mg/kg or bumetanide 0.1-0.2 mg/kg i.p., saline control 444.7±136.3%): 88.7±24.5%
- decrease of averaged power of epileptiform activity ([1]; P7-9 rat hippocampal slices, n=9): 71±2.1%
- decrease of averaged power of epileptiform activity ([1]; P10-P12 rat hippocampal slices, n=6): 41.9±1.5%
- increase of IED frequency ([1]; bumetanide 10 μM in the presence of bicuculline 10 μM, P7-9 slices, n=6, p=0.008): 22.8 ± 6.4%
- decrease of IED length ([1]; bumetanide 10 μM in the presence of bicuculline 10 μM, P7-9 slices, p=0.8): 2.2±8%
- averaged power of epileptiform discharges ([1]; bumetanide 10 μM in the presence of bicuculline 10 μM, p=0.35): did not change
- effect on epileptiform activity ([1]; hippocampal slices from P7-9 rats, bath application phenobarbital 100 μM (n=6) or bumetanide 10 μM (n=10)): strongly suppressed interictal and ictal-like epileptiform activity
- effect on epileptiform activity ([1]; hippocampal slices from P10-12 rats, bath application phenobarbital 100 μM (n=7) or bumetanide 10 μM (n=6)): depressed ictal-like epileptiform activity
